Results from patent publication US20240124409A1, “GUAIANOLIDE SESQUITERPENE LACTONE DERIVATIVES AND PHARMACEUTICAL USE THEREOF” (NANJING UNIVERSITY OF CHINESE MEDICINE, priority 2021, published 2024).

Legend:
[1] = tested on: mouse acute lung injury model; test: Mouse acute lung injury model (LPS), ELISA; type: in vivo, C57BL/6 mice; conditions: title: serum (text b290: lung tissues), 12 μmol/kg
Method: In addition to the normal group injected intragastrically with PBS, other mice were injected intraperitoneally with LPS (7.5 mg/kg) to establish acute lung injury models. Three days before model establishment, the parent drug 1 (0.4 and 4 μmol/kg), the hydrochloride 22 (0.4 and 4 μmol/kg), the fumarate 23 (0.4 and 4 μmol/kg) and the positive drug Dex (12 μmol/kg) were administered intragastrically in advance, and LPS (7.5 mg/kg) was injected intraperitoneally half an hour after administration on the third day.
abdominal cavity was opened. The lungs were taken out, and rinsed twice with pre-cooled PBS. […] The remaining tissues were frozen at −70° C. for subsequent use.
20 mg of lung tissues were accurately weighed, rinsed with pre-cooled PBS solution, cut into small pieces by ophthalmic surgical scissors, and put into a glass homogenizer, into which was added 180 μL PBS (containing 1 mM PMSF). The mixture was homogenized at 60 HZ for 180 s, and centrifuged at 3000 rpm/min at 4° C. for 20 min. 1 μL supernatant was taken, the protein concentration of which was measured with Nanodrop and leveled, and could be used for subsequent experiments.

mouse sepsis model = test: Mouse sepsis model (LPS), Q-PCR of inflammatory factors; type: in vivo, C57BL/6 mice; set-up: key: relative mRNA by 2^−ΔΔCt, normalized to Gapdh; conditions: 12 μmol/kg i.g.
Source text: The mice were randomly divided into 8 groups, one of which was randomly selected as the normal group, and the other 7 groups were the model group, the parent drug 1 (0.4 and 4 μmol/kg), the hydrochloride 22 (4 μmol/kg), the fumarate 23 (0.4 and 4 μmol/kg) and dexamethasone (Dex, 12 μmol/kg) groups, respectively, with 6 mice in each group. 5 days before model establishment, the parent drug 1 (0.4 and 4 μmol/kg), the hydrochloride 22 (4 μmol/kg), the fumarate 23 (0.4 and 4 μmol/kg) and Dex (12 μmol/kg) were administered intragastrically. The mice in the normal group and model group were administered intragastrically the same volume of the solvent 0.5% CMC-Na. LPS (10 mg/kg) was injected intraperitoneally 1 hour after administration on the last day to establish a mouse sepsis model.
At 6 h after intraperitoneal injection of LPS, the mice were sacrificed by cervical dislocation, and the abdominal cavity was opened. The lungs, livers and kidneys were taken out, and rinsed twice with pre-cooled PBS. The lung tissues, liver left lobe tissues and kidney tissues of the mice were cut, and fixed with 4% paraformaldehyde for 24-48 h. The remaining tissues were frozen at −70° Cfor subsequent use.
20 mg of kidney, lung and liver tissues were accurately weighed, rinsed with pre-cooled PBS solution, cut into small pieces by ophthalmic surgical scissors, and put into a glass homogenizer, into which was added 1 mL Trizol reagent for grinding to prepare tissue homogenate. Subsequently, the homogenate was transferred into a 1.5 mL EP tube without RNase and lysed on ice for 10 min. 200 μL chloroform was added, and the mixture was shaken violently, stood on ice for 3-5 min, and centrifuged at 12000 rpm and 4° C. for 15 min. The supernatant was aspirated carefully into a new 1.5 mL EP tube without RNase, into which was added the same volume of pre-cooled isopropanol, stood on an ice bath for 30 min, centrifuged at 12000 rpm and 4° C. for 10 min, and the supernatant was discarded. 75% ethanol-DEPC solution was added to wash the precipitate, and the total RNA was obtained by inversion and air drying on flat paper. Subsequently, 10 μL of DEPC treated water was added for dissolution. 1 μL of the total RNA solution was taken, and diluted to 100 times, the OD values of which at 260 nm and 280 nm were measured with a full wavelength microplate reader. If the ratio of OD260/OD280 is between 1.8 and 2.0, it is said that the extracted RNA has a high purity, i.e., it can be used in subsequent experiments.
Subsequent experiments were carried out with 20 μL of a reverse transcription reaction system according to the method described in the kit instructions:
Subsequent experiments were carried out with 20 μL of a reaction system according to the method described in the kit instructions:
The above reagents were added into a micro-reaction tube, sealed with a sealing membrane, and placed in a Q-PCR instrument. The parameters were set according to the following reaction conditions to carry out the amplification experiment. The reaction conditions were as follows:
The threshold cycle (Ct) value of each group was recorded. Calculating and analyzing were carried out by the 2^−ΔΔCt method (the expression level of the control gene Gapdh was set to 1 to correct the expression level of the target gene).

[2] = tested on: acute gouty arthritis model rats induced by MSU; test: Rat acute gouty arthritis model induced by MSU; type: in vivo, SD rats
Method: During the adaptive feeding period, 2% pentobarbital sodium was used to anesthetize the rats by intraperitoneal injection at a dose of 0.25 mL/100 g. The circumferences of the ankle joints of the parent left hind limbs of the rats were measured. After the adaptive feeding, 2% pentobarbital sodium was used for intraperitoneal injection anesthesia at a dose of 0.25 mL/100 g. After the anesthesia, 8 rats were randomly selected as the blank group, and normal saline was injected into the joint cavity of their left hind limbs. The other rats were injected with 200 μL sodium urate into the joint cavity of the left hind limbs. 6 h after the model establishment, the rats were anesthetized with pentobarbital sodium, and the joint circumference was measured with a 2 mm wide paper strip. According to the joint swelling ratio, the rats were divided into seven groups.
Administration was carried out once at 10.5 h and 22.5 h after the model establishment, respectively.
Joint swelling is one of the main characteristics of acute gouty arthritis model rats induced by MSU. Before the model establishment, and at 6 h, 12 h and 24 h after the model establishment, the circumferences of the ankle joints of the left hind limbs were measured respectively, and the joint swelling ratios were calculated. The circumferences at 0.5 mm below the ankle joints of the left hind feet of rats in each group were measured with a 2 mm wide paper strip and a ruler, the measurement was repeated twice, and the average value was taken to calculate the joint swelling ratio.
Joint swelling ratio=(joint circumference at test time point−initial joint circumference)/initial joint circumference

[3] = Table 12, title 'in lung' (text b281: liver)

C[C@@H]1C[C@H]2[C@@H]3CCC4=CC(=O)C=C[C@]4(C)[C@@]3(F)[C@@H](O)C[C@]2(C)[C@@]1(O)C(=O)CO [Dex, dexamethasone, reference compound]
IL-1β [1]: 1873.00 ± 86.52 pg/mL
IL-6 [1]: 1423.00 ± 168.40 pg/mL
Il1 mRNA expression (mouse sepsis model; [3]): 7.54 ± 0.70
Il6 mRNA expression (mouse sepsis model; [3]): 4.27 ± 1.33
Tnf mRNA expression (mouse sepsis model; [3]): 7.04 ± 0.77
Il1 mRNA expression (mouse sepsis model; kidney): 6.05 ± 1.03
Il6 mRNA expression (mouse sepsis model; kidney): 5.76 ± 0.72
Tnf mRNA expression (mouse sepsis model; kidney): 6.62 ± 0.68
Il1 mRNA expression (mouse sepsis model; lung): 7.20 ± 0.36
Il6 mRNA expression (mouse sepsis model; lung): 9.88 ± 0.80
Tnf mRNA expression (mouse sepsis model; lung): 8.99 ± 0.76

COc1cc2c(c(OC)c1OC)-c1ccc(OC)c(=O)cc1[C@@H](NC(C)=O)CC2 [colchicine]
joint swelling ratio ([2]; 6 h after model establishment (before dosing), 0.5 mg/kg i.g.): 16.15 ± 1.37
joint swelling ratio ([2]; 12 h after model establishment, 0.5 mg/kg i.g.): 29.10 ± 3.17
joint swelling ratio ([2]; 24 h after model establishment, 0.5 mg/kg i.g.): 23.28 ± 2.14

C[C@]12C=CC(=O)C=C1CC[C@@H]1[C@@H]2[C@@H](O)C[C@@]2(C)[C@H]1CC[C@]2(O)C(=O)CO [prednisolone]
joint swelling ratio ([2]; 6 h after model establishment (before dosing), 3.125 mg/kg i.g.): 15.78 ± 1.22
joint swelling ratio ([2]; 12 h after model establishment, 3.125 mg/kg i.g.): 25.43 ± 2.03
joint swelling ratio ([2]; 24 h after model establishment, 3.125 mg/kg i.g.): 18.48 ± 1.66
